“And” between values parts separate entries of the source, which are not always exact repeats. Equal values may be shown once.
Experiments:
[1] = system: patients with Metabolic Syndrome; assay: Phase I/II buccal tablet study: triglyceride and HDL levels, incl. obese subset (Examples 7 and 8); format: in vivo, human
Protocol: The study was a phase I/II randomized, double blind, dose-ranging, placebo-controlled, evaluation of the safety, tolerance, and activity on lipid laboratory markers after transmucosal (buccal) administration of two dose levels (20 mg or 80 mg) of fluasterone (16α-fluoro-5-androsten-17-one) compared to placebo in patients with Metabolic Syndrome. Study treatment consisted of eight weeks of buccal tablet administration of fluasterone or placebo control and subsequent follow-up for two weeks.
After patient consent had been obtained, patients were screened for eligibility into the study. Following informed consent, screening and laboratory testing, patients entered a six-week dietary run-in phase during which they followed a Step II AHA diet, and discontinued all lipid-lowering agents. At 4 weeks into the dietary run-in phase, qualifying lipid and endocrine laboratory measurements were performed. After the run-in phase, patients were randomized to receive either fluasterone or placebo control. Patients received fluasterone or placebo daily for 8 weeks. Patients were followed for an additional 2 weeks for total study duration of 16 weeks. The dose levels evaluated in this study were either 20 mg or 80 mg buccal tablets of fluasterone or placebo control that were formulated to dissolve between the lower gingival surfaces of the jaw and buccal mucosa of the cheek pouch.
Fluasterone or placebo equivalent was administered as either one or four buccal tablets. Each buccal tablet contained 16-α-fluoro-5-androsten-17-one, mannitol, crospovidone, magnesium stearate, polyethylene glycol 3350, silica gel and sodium lauryl sulfate. Patients were instructed to ingest water prior to placing the buccal tablets in their mouth. The tablets were held in the mouth without disturbance for approximately 10 minutes. Patients were instructed not to chew or swallow the tablets and not drink or eat for 30 minutes after study drug administration.
The study consisted of a 6-week dietary run-in phase during which they followed a Step II AHA diet and discontinued all lipid-lowering agents. After the run-in phase, patients who qualified based on lipid and endocrine laboratory measurements at the qualifying visit (week −2) were randomized to receive fluasterone or placebo control. Patients received fluasterone or placebo control daily for 8 weeks. Patients were followed for an additional 2 weeks to collect adverse events and an additional lipid profile for total study duration of 16 weeks.
Blood samples were collected for lipid determinations at the qualifying visit (week −2), at study day 1, and at weeks 2, 4, 6, 8, and 10.
There were 8 patients treated with 80 mg fluasterone, 9 with 20 mg fluasterone, 3 patients with 80 mg placebo, and 4 patients with 20 mg placebo.
The triglyceride level in the 80 mg fluasterone group declined from baseline by 34% at week […] and by 35% at week […]. In the combined placebo group at the corresponding time points the triglyceride levels increased by 6% and 7% respectively.

[2] = system: patients with rheumatoid arthritis; assay: Trial in arthritis patients, 1200 mg oral fluasterone daily: HDL levels (Example 5b); format: in vivo, human
Protocol: In this trial patients with rheumatoid arthritis were treated for 3 to 12 weeks with 1200 mg oral fluasterone daily. A placebo group was also included.

[3] = system: patients with rheumatoid arthritis; assay: Oral fluasterone in rheumatoid arthritis patients, obese vs non-obese: triglycerides (Example 6); format: in vivo, human
Protocol: In this clinical trial oral fluasterone (1200 mg) was administered daily to patients with rheumatoid arthritis for 3 to 12 weeks. Nine patients had baseline triglyceride levels 200 mg/dL. These patients were divided into obese (BMI>30) and non-obese (BMI<30) groups. […] However, the conclusion would be the same without the addition of this patient.
The baseline levels was the mean value of week −2, 0 and the treatment levels were the last values obtained (week 3 to 12) for each patient. The obese patients has a BMI of 36.6±4.0 and the non-obese a BMI of 27.1±1.5.

[4] = system: male BKS.Cg-m+/+Leprdb mice; assay: Fasting plasma glucose levels in diabetic mice (Example 9); format: in vivo
[5] = 20 mg buccal daily, Week 2, 4, 6, & 8
[6] = 80 mg buccal daily, Week 2, 4, 6, & 8
[7] = obese subset, 80 mg buccal daily, Week 2, 4, 6, and 8
[8] = obese subset, 80 mg buccal daily, Week 8
[9] = obese subset, 80 mg buccal, Baseline (−2, 0)

In the case of `C[C@]12CCCCC1=CC[C@@H]1[C@@H]2CC[C@]2(C)C(=O)[C@H](F)C[C@@H]12` [fluasterone, 16α-fluoro-5-androsten-17-one], the HDL [1, 5] is reported as 32.6 ± 6.4 (36) mg/dL, the Triglycerides [1, 5] is reported as 523 ± 311 (36) mg/dL and the HDL ([1]; 20 mg buccal daily, Week 8) is reported as 33.3 ± 6.5 (9) mg/dL. For the same compound, the Triglycerides ([1]; 20 mg buccal daily, Week 8) was 538 ± 285 (9) mg/dL, the HDL ([1]; 20 mg buccal, Baseline (−2, 0)) was 31.6 ± 6.2 (18) mg/dL and the Triglycerides ([1]; 20 mg buccal, Baseline (−2, 0)) was 507 ± 192 (18) mg/dL. The HDL [1, 6] was 41.1 ± 8.1 (32) mg/dL, the Triglycerides [1, 6] was 342 ± 111 (32) mg/dL and the HDL ([1]; 80 mg buccal daily, Week 8) was 41.6 ± 9.4 (8) mg/dL. For the same compound, the Triglycerides ([1]; 80 mg buccal daily, Week 8) was 292 ± 92.4 (8) mg/dL, the “Effect on HDL level” value ([1]; 80 mg buccal dose, all patients) was “no apparent decline in HDL level” and the HDL ([1]; 80 mg buccal, Baseline (−2, 0)) was 40.8 ± 8.9 (16) mg/dL. For the same compound, the Triglycerides ([1]; 80 mg buccal, Baseline (−2, 0)) was 455 ± 157 (16) mg/dL, the “Reduction of mean triglyceride level compared to baseline” value ([1]; 80 mg buccal, mean 8-week level) was 36% and the “Reduction of mean triglyceride level compared to baseline” value ([1]; 80 mg buccal, mean of week 2, 4, 6, & 8) was “at least 25%”. For the same compound, the “Effect on HDL levels” value ([1]; obese subset, 80 mg buccal) was “no decline in HDL levels from baseline”, the HDL [1, 7] was 40.3 ± 6.3 (20) mg/dL and the Triglycerides [1, 7] was 313 ± 93.7 (20) mg/dL. For the same compound, the HDL [1, 8] was 40.3 ± 4.6 (5) mg/dL, the Triglycerides [1, 8] was 307 ± 106 (5) mg/dL and the HDL [1, 9] was 39.2 ± 7.3 (10) mg/dL. The Triglycerides [1, 9] was 472 ± 169 (10) mg/dL, the “Decline of triglyceride level from baseline” value ([1]; obese subset, 80 mg buccal, week 2, 4, 6, and 8, p=0.0368 vs combined placebo) was 34% and the “Decline of triglyceride level from baseline” value ([1]; obese subset, 80 mg buccal, week 8) was 35%. The “HDL Levels” value ([2]; Combined (20), pretreatment) was 57.4 ± 14.7, the “HDL Levels” value ([2]; Combined, treatment 1200 mg oral daily, 3 to 12 weeks, p < 0.02) was 46.9 ± 8.9 and the “HDL Levels” value ([2]; Females (16), pretreatment) was 59.8 ± 14.6 (16). The “HDL Levels” value ([2]; Females, treatment 1200 mg oral daily, 3 to 12 weeks, p < 0.01) was 46.8 ± 9.6, the “HDL Levels” value ([2]; Males (4), pretreatment) was 47.0 ± 9.1 (4) and the “HDL Levels” value ([2]; Males (4), treatment 1200 mg oral daily, 3 to 12 weeks) was 47.0 ± 5.8 (4). For the same compound, the “Decline in triglyceride level, obese vs non-obese” value ([3]; 1200 mg oral daily, p=0.0113, group effect) was “significantly greater decline in triglyceride level than the non-obese”, the “Triglycerides (mean ± S.D.)” value ([3]; Non-obese (BMI<30), baseline (mean of week −2, 0)) was 310 mg/dL and 330 ± 163 (10) mg/dL and the “Triglycerides (mean ± S.D.)” value ([3]; Non-obese (BMI<30), treatment 1200 mg oral daily, last value (week 3 to 12)) was 248 ± 89.8 (5) mg/dL. For the same compound, the “Triglycerides (mean ± S.D.)” value ([3]; Obese (BMI>30), baseline (mean of week −2, 0)) was 232 mg/dL and 231 ± 57.1 (10) mg/dL, the “Triglycerides (mean ± S.D.)” value ([3]; Obese (BMI>30), treatment 1200 mg oral daily, last value (week 3 to 12)) was 135 ± 12.1 (5) mg/dL and the “Fasting Plasma Glucose Levels” value ([4]; 5 mg/kg i.p., treatment day 0) was 270 ± 81.9 mg/dL. The “Fasting Plasma Glucose Levels” value ([4]; 5 mg/kg i.p., treatment day 7) was 434 ± 264 mg/dL, the “Fasting Plasma Glucose Levels” value ([4]; 5 mg/kg i.p., treatment day 14) was 410 ± 32.1 mg/dL and the “Fasting Plasma Glucose Levels” value ([4]; 5 mg/kg i.p., treatment day 17, greater than s.c. Control, p < 0.01) was 635 ± 77.3^3 mg/dL. The “Fasting Plasma Glucose Levels” value ([4]; 5 mg/kg s.c., treatment day 0) was 245 ± 102 mg/dL, the “Fasting Plasma Glucose Levels” value ([4]; 5 mg/kg s.c., treatment day 7) was 173 ± 58.3 mg/dL and the “Fasting Plasma Glucose Levels” value ([4]; 5 mg/kg s.c., treatment day 14, less than s.c. Control, p < 0.001) was 134 ± 29.8^1 mg/dL. The “Fasting Plasma Glucose Levels” value ([4]; 5 mg/kg s.c., treatment day 17, less than s.c. Control, p < 0.001) was 96.0 ± 18.5^1 mg/dL, the “Fasting Plasma Glucose Levels” value ([4]; 200 mg/kg oral, treatment day 0) was 245 ± 72.1 mg/dL and the “Fasting Plasma Glucose Levels” value ([4]; 200 mg/kg oral, treatment day 7) was 181 ± 69.3 mg/dL. The “Fasting Plasma Glucose Levels” value ([4]; 200 mg/kg oral, treatment day 14, less than oral Control, p < 0.001) was 107 ± 12.2^2 mg/dL and the “Fasting Plasma Glucose Levels” value ([4]; 200 mg/kg oral, treatment day 17, less than oral Control, p < 0.001) was 104 ± 24.8^2 mg/dL.

Source: patent US20040019026A1, “Compounds useful for treating hypertriglyceridemia” (priority 2000, published 2004)
